Square brackets hold non-standard residues; d marks the D form. Peptide text beside a SMILES is read from it. * marks the point of attachment. Sta = CC(C)C[C@H](N)[C@@H](O)CC(=O)O; Boc = CC(C)(C)OC(=O)*
Target: Rhizopuspepsin (Rhizopus chinensis)
Assay: Compound was tested for inhibition of Rhizopus chinensis pepsin.

SMILES	Ki
COC(=O)[C@H](CC(C)C)NC(=O)[C@@H](NC(=O)[C@H](Cc1ccccc1)NC(=O)C[C@H](O)[C@H](CC(C)C)NC(=O)[C@H](C)NC(=O)[C@H](CC(C)C)NC(=O)[C@H](Cc1ccccc1)NC(=O)OC(C)(C)C)C(C)C [2-{2-[2-(4-{2-[2-(2-tert-Butoxycarbonylamino-3-phenyl-propionylamino)-4-methyl-pentanoylamino]-propionylamino}-3-hydroxy-6-methyl-heptanoylamino)-3-phenyl-propionylamino]-3-methyl-butyrylamino}-4-methyl-pentanoic acid methyl ester] (Boc-FLA[Sta]FVL-OMe)	9.2 nM
COC(=O)[C@H](CC(C)C)NC(=O)[C@@H](NC(=O)[C@H](Cc1ccccc1)NC(=O)C[C@H](O)[C@H](CC(C)C)NC(=O)[C@H](C)NC(=O)[C@H](Cc1ccccc1)NC(=O)[C@H](Cc1ccccc1)NC(=O)OC(C)(C)C)C(C)C [2-{2-[2-(4-{2-[2-(2-tert-Butoxycarbonylamino-3-phenyl-propionylamino)-3-phenyl-propionylamino]-propionylamino}-3-hydroxy-6-methyl-heptanoylamino)-3-phenyl-propionylamino]-3-methyl-butyrylamino}-4-methyl-pentanoic acid methyl ester] (Boc-FFA[Sta]FVL-OMe)	14 nM
COC(=O)[C@H](CC(C)C)NC(=O)[C@@H](NC(=O)C[C@H](O)[C@H](CC(C)C)NC(=O)[C@H](C)NC(=O)[C@H](C)NC(=O)[C@H](Cc1ccccc1)NC(=O)OC(C)(C)C)C(C)C [2-[2-(4-{2-[2-(2-tert-Butoxycarbonylamino-3-phenyl-propionylamino)-propionylamino]-propionylamino}-3-hydroxy-6-methyl-heptanoylamino)-3-methyl-butyrylamino]-4-methyl-pentanoic acid methyl ester] (Boc-FAA[Sta]VL-OMe)	78 nM
COC(=O)[C@H](CC(C)C)NC(=O)[C@@H](NC(=O)[C@H](Cc1ccccc1)NC(=O)C[C@H](O)[C@H](CC(C)C)NC(=O)[C@H](C)NC(=O)[C@H](C)NC(=O)[C@H](Cc1ccccc1)NC(=O)OC(C)(C)C)C(C)C [2-{2-[2-(4-{2-[2-(2-tert-Butoxycarbonylamino-3-phenyl-propionylamino)-propionylamino]-propionylamino}-3-hydroxy-6-methyl-heptanoylamino)-3-phenyl-propionylamino]-3-methyl-butyrylamino}-4-methyl-pentanoic acid methyl ester] (Boc-FAA[Sta]FVL-OMe)	51 nM

From BindingDB's records for doi:10.1021/jm00162a015 (1987)
